Literature values as cited in patent US20100004191A1, “Compositions of S-adenosyl-L-methionine” (priority 2008, published 2010).

Assays:
[1] = tested on: alcoholic liver cirrhosis; conditions: oral; patients with alcoholic liver cirrhosis; compared with placebo treated group
beta-adrenergic = conditions: L-form vs D-enantiomer

Row | SMILES | overall mortality and/or progression to liver transplant [1] | potency relative to the D-enantiomer (beta-adrenergic)
1 | C[S+](CC[C@H](N)C(=O)[O-])C[C@H]1O[C@@H](n2cnc3c(N)ncnc32)[C@H](O)[C@@H]1O (stereo partly drawn) [S-adenosyl-L-methionine] | 29% | –
2 | CC(C)NCC(O)COc1cccc2ccccc12 (centres unmarked) [propranolol] | – | 100 times
